# Reference: patent US11358957B2, “Microbiocidal oxadiazole derivatives” (SYNGENTA PARTICIPATIONS AG, priority 2017, dated 2022)
# How the values were obtained:
# [1] = tested on: Glomerella lagenarium (Colletotrichum lagenarium); assay: Fungicidal activity against Glomerella lagenarium (Colletotrichum lagenarium) liquid culture / cucumber / preventative (anthracnose); type: cell-based; details: Colletotrichum orbiculare; 20 ppm in the applied formulation; liquid culture (PDB), inhibition of growth measured photometrically 3 to 4 days after application; compared to untreated; read-out: disease control
# Procedure: Mycelia fragments or conidia suspensions of a fungus prepared either freshly from liquid cultures of the fungus or from cryogenic storage, are directly mixed into nutrient broth. DMSO solutions of the test compound (max. 10 mg/mL) are diluted with 0.025% Tween20 by a factor of 50 and 10 μL of this solution is pipetted into a microtiter plate (96-well format). The nutrient broth containing the fungal spores/mycelia fragments is then added to give an end concentration of the tested compound. The test plates are incubated in the dark at 24° C. and 96% relative humidity. The inhibition of fungal growth is determined photometrically after 2 to 7 days, depending on the pathosystem, and percent antifungal activity relative to the untreated check is calculated. Conidia of the fungus from cryogenic storage are directly mixed into nutrient broth (PDB—potato dextrose broth). After placing a (DMSO) solution of test compound into a microtiter plate (96-well format), the nutrient broth containing the fungal spores is added. The test plates are incubated at 24° C. and the inhibition of growth is measured photometrically 3 to 4 days after application. The following compounds at 20 ppm in the applied formulation give at least 80% disease control in this test when compared to untreated control under the same conditions, which show extensive disease development.
# [2] = tested on: Puccinia recondita f. Sp. Tritici; assay: Fungicidal activity against Puccinia recondita f. sp. tritici / wheat / leaf disc preventative (brown rust); type: in vivo; details: foliar, 200 ppm in the applied formulation, wheat leaf segments cv. Kanzler, preventative (inoculated 1 day after application), compared to untreated, read-out: disease control
# Procedure: Leaf disks or leaf segments of various plant species are cut from plants grown in a greenhouse. The cut leaf disks or segments are placed in multiwell plates (24-well format) onto water agar. The leaf disks are sprayed with a test solution before (preventative) or after (curative) inoculation. Compounds to be tested are prepared as DMSO solutions (max. 10 mg/mL) which are diluted to the appropriate concentration with 0.025% Tween20 just before spraying. The inoculated leaf disks or segments are incubated under defined conditions (temperature, relative humidity, light, etc.) according to the respective test system. A single evaluation of disease level is carried out 3 to 14 days after inoculation, depending on the pathosystem. Percent disease control relative to the untreated check leaf disks or segments is then calculated. Wheat leaf segments cv. Kanzler were placed on agar in multiwell plates (24-well format) and sprayed with the formulated test compound diluted in water. The leaf disks were inoculated with a spore suspension of the fungus 1 day after application. The inoculated leaf segments were incubated at 19° C. and 75% relative humidity (rh) under a light regime of 12 hours light/12 hours darkness in a climate cabinet and the activity of a compound was assessed as percent disease control compared to untreated when an appropriate level of disease damage appears in untreated check leaf segments (7 to 9 days after application). The following compounds at 200 ppm in the applied formulation give at least 80% disease control in this test when compared to untreated control leaf disks under the same conditions, which show extensive disease development.
# [3] = tested on: Puccinia recondita f. Sp. Tritici; assay: Fungicidal activity against Puccinia recondita f. sp. tritici / wheat / leaf disc curative (brown rust); type: in vivo; details: foliar, 24 h, 200 ppm in the applied formulation, wheat leaf segments cv. Kanzler, curative (applied 1 day after inoculation), compared to untreated, read-out: disease control
# Procedure: Leaf disks or leaf segments of various plant species are cut from plants grown in a greenhouse. The cut leaf disks or segments are placed in multiwell plates (24-well format) onto water agar. The leaf disks are sprayed with a test solution before (preventative) or after (curative) inoculation. Compounds to be tested are prepared as DMSO solutions (max. 10 mg/mL) which are diluted to the appropriate concentration with 0.025% Tween20 just before spraying. The inoculated leaf disks or segments are incubated under defined conditions (temperature, relative humidity, light, etc.) according to the respective test system. A single evaluation of disease level is carried out 3 to 14 days after inoculation, depending on the pathosystem. Percent disease control relative to the untreated check leaf disks or segments is then calculated. Wheat leaf segments cv. Kanzler are placed on agar in multiwell plates (24-well format). The leaf segments are then inoculated with a spore suspension of the fungus. Plates were stored in darkness at 19C and 75% relative humidity. The formulated test compound diluted in water was applied 1 day after inoculation. The leaf segments were incubated at 19° C. and 75% relative humidity under a light regime of 12 hours light/12 hours darkness in a climate cabinet and the activity of a compound was assessed as percent disease control compared to untreated when an appropriate level of disease damage appears in untreated check leaf segments (6 to 8 days after application). The following compounds at 200 ppm in the applied formulation give at least 80% disease control in this test when compared to untreated control leaf disks under the same conditions, which show extensive disease development.
Structure (SMILES),inhibition of growth at 20 ppm [1] [%],pest or weed control at 200 ppm [2] [%],pest or weed control at 200 ppm [3] [%]
"CC(C)(C)CNC(=O)c1ccnn1Cc1ccc(-c2noc(C(F)(F)F)n2)s1 [Compound 1.156, N-(2,2-dimethylpropyl)-2-[[5-[5-(trifluoromethyl)-1,2,4-oxadiazol-3-yl]-2-thienyl]methyl]pyrazole-3-carboxamide]",≥ 80,≥ 80,
"O=C(NC1CCCC1)c1ccnn1Cc1ccc(-c2noc(C(F)(F)F)n2)s1 [Compound 1.165, N-cyclopentyl-2-[[5-[5-(trifluoromethyl)-1,2,4-oxadiazol-3-yl]-2-thienyl]methyl]pyrazole-3-carboxamide]",≥ 80,≥ 80,
"O=C(NCc1ccccc1)c1ccnn1Cc1ccc(-c2noc(C(F)(F)F)n2)s1 [Compound 1.163, N-benzyl-2-[[5-[5-(trifluoromethyl)-1,2,4-oxadiazol-3-yl]-2-thienyl]methyl]pyrazole-3-carboxamide]",≥ 80,≥ 80,
"CC1(C)CC(=O)N(Cc2cc(-c3noc(C(F)(F)F)n3)cs2)O1 [Compound 1.28, 5,5-dimethyl-2-[[4-[5-(trifluoromethyl)-1,2,4-oxadiazol-3-yl]-2-thienyl]methyl] isoxazolidin-3-one]",≥ 80,,
"Cc1cccc(=O)n1Cc1cc(-c2noc(C(F)(F)F)n2)cs1 [Compound 1.27, 6-methyl-1-[[4-[5-(trifluoromethyl)-1,2,4-oxadiazol-3-yl]-2-thienyl]methyl]pyridin-2-one]",≥ 80,,
"O=C(NC1CCCCC1)c1ncn(Cc2ccc(-c3noc(C(F)(F)F)n3)s2)n1 [Compound 1.149, N-cyclohexyl-1-[[5-[5-(trifluoromethyl)-1,2,4-oxadiazol-3-yl]-2-thienyl]methyl]-1,2,4-triazole-3-carboxamide]",≥ 80,≥ 80,
"CC(C)(C)NC(=O)c1ccnn1Cc1ccc(-c2noc(C(F)(F)F)n2)s1 [Compound 1.167, N-tert-butyl-2-[[5-[5-(trifluoromethyl)-1,2,4-oxadiazol-3-yl]-2-thienyl]methyl]pyrazole-3-carboxamide]",≥ 80,≥ 80,
"CCC(C)NC(=O)c1ccnn1Cc1ccc(-c2noc(C(F)(F)F)n2)s1 (stereo not drawn) [Compound 1.155, N-sec-butyl-2-[[5-[5-(trifluoromethyl)-1,2,4-oxadiazol-3-yl]-2-thienyl]methyl]pyrazole-3-carboxamide]",≥ 80,≥ 80,
"O=C(NC1CCCCC1)c1ccnn1Cc1ccc(-c2noc(C(F)(F)F)n2)s1 [Compound 1.159, N-cyclohexyl-2-[[5-[5-(trifluoromethyl)-1,2,4-oxadiazol-3-yl]-2-thienyl]methyl]pyrazole-3-carboxamide]",≥ 80,≥ 80,
"O=C(NC1CC1)c1nccn1Cc1ccc(-c2noc(C(F)(F)F)n2)s1 [Compound 1.177, N-cyclopropyl-1-[[5-[5-(trifluoromethyl)-1,2,4-oxadiazol-3-yl]-2-thienyl]methyl]imidazole-2-carboxamide]",,≥ 80,≥ 80
"Cc1cnn(Cc2ccc(-c3noc(C(F)(F)F)n3)s2)c1 [Compound 1.5, 3-[5-[(4-methylpyrazol-1-yl)methyl]-2-thienyl]-5-(trifluoromethyl)-1,2,4-oxadiazole]",≥ 80,≥ 80,
"CC1(C)CC(=O)N(Cc2ccc(-c3noc(C(F)(F)F)n3)s2)O1 [Compound 1.3, 5,5-dimethyl-2-[[5-[5-(trifluoromethyl)-1,2,4-oxadiazol-3-yl]-2-thienyl]methyl] isoxazolidin-3-one]",≥ 80,≥ 80,
"FC(F)(F)c1nc(-c2ccc(CN3CCOCC3)s2)no1 [Compound 1.18, 4-[[5-[5-(trifluoromethyl)-1,2,4-oxadiazol-3-yl]-2-thienyl]methyl]morpholine]",≥ 80,≥ 80,
"O=C1CCCCN1Cc1cc(-c2noc(C(F)(F)F)n2)cs1 [Compound 1.31, 1-[[4-[5-(trifluoromethyl)-1,2,4-oxadiazol-3-yl]-2-thienyl]methyl]piperidin-2-one]",≥ 80,,
"FC(F)(F)c1nc(-c2ccc(CN3CCC3)s2)no1 [Compound 1.20, 3-[5-(azetidin-1-ylmethyl)-2-thienyl]-5-(trifluoromethyl)-1,2,4-oxadiazole]",≥ 80,,
"O=C(Nc1ccccc1)c1ccnn1Cc1ccc(-c2noc(C(F)(F)F)n2)s1 [Compound 1.162, N-phenyl-2-[[5-[5-(trifluoromethyl)-1,2,4-oxadiazol-3-yl]-2-thienyl]methyl]pyrazole-3-carboxamide]",≥ 80,≥ 80,
"O=S1(=O)CCCN1Cc1cc(-c2noc(C(F)(F)F)n2)cs1 [Compound 1.29, 2-[[4-[5-(trifluoromethyl)-1,2,4-oxadiazol-3-yl]-2-thienyl]methyl]-1,2-thiazolidine 1,1-dioxide]",≥ 80,,
"Fc1cnn(Cc2ccc(-c3noc(C(F)(F)F)n3)s2)c1 [Compound 1.12, 3-[5-[(4-fluoropyrazol-1-yl)methyl]-2-thienyl]-5-(trifluoromethyl)-1,2,4-oxadiazole]",≥ 80,≥ 80,
"CC(c1ccc(-c2noc(C(F)(F)F)n2)s1)n1cc(C(=O)NC2CCCCC2)cn1 (stereo not drawn) [Compound 1.71, N-cyclohexyl-1-[1-[5-[5-(trifluoromethyl)-1,2,4-oxadiazol-3-yl]-2-thienyl]ethyl]pyrazole-4-carboxamide]",≥ 80,≥ 80,
"FC(F)(F)c1nc(-c2ccc(CN3CCCC3)s2)no1 [Compound 1.15, 3-[5-(pyrrolidin-1-ylmethyl)-2-thienyl]-5-(trifluoromethyl)-1,2,4-oxadiazole]",≥ 80,,
"O=C(Nc1ccccc1)c1cnn(Cc2ccc(-c3noc(C(F)(F)F)n3)s2)c1 [Compound 1.115, N-phenyl-1-[[5-[5-(trifluoromethyl)-1,2,4-oxadiazol-3-yl]-2-thienyl]methyl]pyrazole-4-carboxamide]",≥ 80,≥ 80,
"CC(C)NC(=O)c1ccnn1Cc1ccc(-c2noc(C(F)(F)F)n2)s1 [Compound 1.157, N-isopropyl-2-[[5-[5-(trifluoromethyl)-1,2,4-oxadiazol-3-yl]-2-thienyl]methyl]pyrazole-3-carboxamide]",≥ 80,≥ 80,
"FC(F)(F)c1nc(-c2ccc(Cn3nnnc3-c3ccccc3Br)s2)no1 [Compound 1.10, 3-[5-[[5-(2-bromophenyl)tetrazol-1-yl]methyl]-2-thienyl]-5-(trifluoromethyl)-1,2,4-oxadiazole]",≥ 80,≥ 80,
"FC(F)(F)c1nc(-c2ccc(Cn3cccn3)s2)no1 [Compound 1.7, 3-[5-(pyrazol-1-ylmethyl)-2-thienyl]-5-(trifluoromethyl)-1,2,4-oxadiazole]",≥ 80,≥ 80,
